Measured values taken from article PMC5109050, “Structure and Function of Cyanobacterial DHDPS and DHDPR” (Scientific Reports, 2016).
One block for each compound: values may come before it.

Tests used:
Av-DHDPS [1] = target: T1, Av-DHDPS (Trichormus variabilis, UniProt Q3M723); experiment: DHDPS-DHDPR coupled assay, dose response, four-parameter logistic; assay type: biochemical
T1 construct: gene dapA; synthetic codon-optimised dapA in pRSET-A, His-tagged, E. coli BL21-DE3 pLysS, IMAC; homotetramer 147 kDa; monomer of 297 residues in crystal; active-site Lys164
T1 sequence (Q3M723 entry or part of it): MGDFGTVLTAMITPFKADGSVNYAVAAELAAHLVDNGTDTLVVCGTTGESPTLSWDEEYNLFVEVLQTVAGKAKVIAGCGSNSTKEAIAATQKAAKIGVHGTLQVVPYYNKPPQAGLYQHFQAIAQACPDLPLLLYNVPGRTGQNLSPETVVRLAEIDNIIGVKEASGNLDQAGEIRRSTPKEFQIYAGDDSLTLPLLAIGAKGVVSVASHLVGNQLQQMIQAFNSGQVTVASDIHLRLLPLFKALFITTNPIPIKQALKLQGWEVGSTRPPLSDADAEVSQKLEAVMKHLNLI
Source text: DHDPS-DHDPR coupled assay, dose response, four-parameter logistic on Av-DHDPS

Vv-DHDPS = target: T2, Vv-DHDPS (Vitis vinifera, UniProt D7U7T8); experiment: as above; assay type: biochemical; details: 30 °C; allosteric feedback inhibitor; control enzyme
T2 construct: gene VIT_15s0048g00750; control enzyme; construct not described here
T2 sequence (D7U7T8 40-365 limits assumed): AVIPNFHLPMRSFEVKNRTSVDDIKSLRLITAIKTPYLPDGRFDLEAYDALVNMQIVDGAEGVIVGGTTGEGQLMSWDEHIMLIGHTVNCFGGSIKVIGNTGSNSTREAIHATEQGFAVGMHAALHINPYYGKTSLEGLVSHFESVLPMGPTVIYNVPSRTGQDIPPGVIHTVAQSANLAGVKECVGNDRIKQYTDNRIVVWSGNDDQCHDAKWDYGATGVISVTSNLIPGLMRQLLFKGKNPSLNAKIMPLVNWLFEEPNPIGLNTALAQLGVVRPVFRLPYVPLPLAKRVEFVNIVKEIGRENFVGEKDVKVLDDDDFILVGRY

Ec-DHDPS = target: T3, Ec-DHDPS (Escherichia coli, UniProt P0A6L2); experiment: as above; assay type: biochemical
T3 construct: gene dapA; control enzyme; construct not described here
T3 sequence (P0A6L2 1-292): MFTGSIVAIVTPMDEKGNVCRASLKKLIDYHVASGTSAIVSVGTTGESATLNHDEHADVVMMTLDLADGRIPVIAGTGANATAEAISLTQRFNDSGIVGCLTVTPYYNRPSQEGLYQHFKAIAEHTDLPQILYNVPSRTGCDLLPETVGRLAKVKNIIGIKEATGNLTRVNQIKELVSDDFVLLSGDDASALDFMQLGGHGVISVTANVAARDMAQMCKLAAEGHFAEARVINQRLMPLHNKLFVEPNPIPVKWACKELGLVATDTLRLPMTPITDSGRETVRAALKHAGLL

[2] = target: dihydrodipicolinate reductase from Anabaena variabilis (Anabaena variabilis) (UniProt N8WZH2); experiment: AUC; sedimentation velocity, 20 °C, 40,000 rpm, absorbance at 230 nm, initial concentrations 0.1-7.0 μM (size-distribution analysis at 4.0 μM); single species, tetramer
Av-DHDPR = target: T4, Av-DHDPR (Trichormus variabilis, UniProt Q3MFY8); experiment: microscale thermophoresis, label-free, single-site fit; assay type: binding
T4 construct: gene dapB; synthetic codon-optimised dapB in pRSET-A, His-tagged, E. coli BL21-DE3 pLysS, IMAC; homotetramer 139 kDa; monomer of 287 residues in crystal
T4 sequence (Q3MFY8 2-278): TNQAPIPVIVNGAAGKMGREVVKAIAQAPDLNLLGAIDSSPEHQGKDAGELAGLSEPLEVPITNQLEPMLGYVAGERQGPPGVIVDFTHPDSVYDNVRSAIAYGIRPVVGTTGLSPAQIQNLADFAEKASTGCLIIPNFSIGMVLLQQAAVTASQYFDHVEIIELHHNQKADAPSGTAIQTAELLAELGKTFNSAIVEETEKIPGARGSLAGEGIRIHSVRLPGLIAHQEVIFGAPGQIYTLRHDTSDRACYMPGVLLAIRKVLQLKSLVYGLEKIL

[3] = target: dihydrodipicolinate synthase from Anabaena variabilis (Anabaena variabilis) (UniProt N8VIX7); experiment: AUC; sedimentation velocity, 20 °C, 40,000 rpm, absorbance at 230 nm, initial concentrations 0.1-7.0 μM (size-distribution analysis at 4.0 μM); single species, tetramer
Av-DHDPS [4] = target: T1, Av-DHDPS; experiment: X-ray crystallography, […] Å; assay type: binding; details: covalent; bound to Lys164 in active site; crystallised with 10 mM pyruvate, pH 6.5

Compound: NCCCC[C@H](N)C(=O)O [(S)-lysine]
IC50 (Av-DHDPS [1]): 68 µM
IC50 (Vv-DHDPS): 30 µM
IC50 (Ec-DHDPS): 210 µM

Compound: O=C(O)c1cccc(C(=O)O)n1 [2,6-pyridinedicarboxylate]
Kd (Av-DHDPR): 100 ± 8.2 µM

Compound: CC(=O)C(=O)O [pyruvate]
X-ray crystallography, 1.92 Å (Av-DHDPS [4]): Shown in purple is the substrate pyruvate bonded to Lys164 in Av-DHDPS.

Results, then the compound that gave them:

stoichiometry N [2]: 4
Compound: dihydrodipicolinate reductase from Anabaena variabilis (from UniProt N8WZH2 1-273) (enzyme)

stoichiometry N [3]: 4
Compound: dihydrodipicolinate synthase from Anabaena variabilis (from UniProt N8VIX7 1-299) (enzyme)
